{"source": "PubChem BioAssay AID1963435", "about": "(Molecular Pharmacology Branch, DTP, NCI, 2024)", "test_system": "PANC-1 complex spheroid growth, percent test/control", "experiment": "Anticancer human tumor PANC-1 cell line growth inhibition [Asc];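 on all read-outs here: spheroids exposed to agents for 7 days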;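 on viability, T/C: percent viability relative to DMSO vehicle wells taken as 100%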", "details": "for IC50: curve of first compound; for viability, T/C: stronger effect = lower value", "in_short": "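Complex solid-tumor spheroids incorporating human endothelial and mesenchymal stem cells received single agents or combinations over half-log dilution ranges anchored to clinical Cmax.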"}
{"molecule": "O=C(c1cc(Cc2n[nH]c(=O)c3ccccc23)ccc1F)N1CCN(C(=O)C2CC2)CC1", "note": "+ CNC(C)C(=O)NC1CN(S(=O)(=O)c2cccc(S(=O)(=O)N3CCC4CCC(C(=O)NC(c5ccccc5)c5ccccc5)N4C(=O)C(NC(=O)C(C)NC)C3)c2)CCC2CCC(C(=O)NC(c3ccccc3)c3ccccc3)N2C1=O", "values": [{"measurement": "IC50", "setting": "second compound 0.00316 µM", "result": "> 10", "unit": "µM"}, {"measurement": "IC50", "setting": "second compound 0.01 µM", "result": "> 10", "unit": "µM"}, {"measurement": "IC50", "setting": "second compound 0.0316 µM", "result": "> 10", "unit": "µM"}, {"measurement": "IC50", "setting": "second compound 0.1 µM", "result": "> 10", "unit": "µM"}, {"measurement": "IC50", "setting": "second compound 0.316 µM", "result": "> 10", "unit": "µM"}, {"measurement": "IC50", "setting": "second compound 1 µM", "result": "> 10", "unit": "µM"}, {"measurement": "viability, T/C", "setting": "second compound 0.00316 µM, first compound 0.0316 µM", "result": 132, "unit": "%"}, {"measurement": "viability, T/C", "setting": "second compound 0.00316 µM, first compound 0.1 µM", "result": 111, "unit": "%"}, {"measurement": "viability, T/C", "setting": "second compound 0.00316 µM, first compound 0.316 µM", "result": 134, "unit": "%"}, {"measurement": "viability, T/C", "setting": "second compound 0.00316 µM, first compound 1 µM", "result": 133, "unit": "%"}, {"measurement": "viability, T/C", "setting": "second compound 0.00316 µM, first compound 3.16 µM", "result": 97.3, "unit": "%"}, {"measurement": "viability, T/C", "setting": "second compound 0.00316 µM, first compound 10 µM", "result": 63.4, "unit": "%"}, {"measurement": "viability, T/C", "setting": "second compound 0.01 µM, first compound 0.0316 µM", "result": 109, "unit": "%"}, {"measurement": "viability, T/C", "setting": "second compound 0.01 µM, first compound 0.1 µM", "result": 100, "unit": "%"}, {"measurement": "viability, T/C", "setting": "second compound 0.01 µM, first compound 0.316 µM", "result": 105, "unit": "%"}, {"measurement": "viability, T/C", "setting": "second compound 0.01 µM, first compound 1 µM", "result": 104, "unit": "%"}, {"measurement": "viability, T/C", "setting": "second compound 0.01 µM, first compound 3.16 µM", "result": 103, "unit": "%"}, {"measurement": "viability, T/C", "setting": "second compound 0.01 µM, first compound 10 µM", "result": 98.4, "unit": "%"}, {"measurement": "viability, T/C", "setting": "second compound 0.0316 µM, first compound 0.0316 µM", "result": 107, "unit": "%"}, {"measurement": "viability, T/C", "setting": "second compound 0.0316 µM, first compound 0.1 µM", "result": 96.2, "unit": "%"}, {"measurement": "viability, T/C", "setting": "second compound 0.0316 µM, first compound 0.316 µM", "result": 96.7, "unit": "%"}, {"measurement": "viability, T/C", "setting": "second compound 0.0316 µM, first compound 1 µM", "result": 110, "unit": "%"}, {"measurement": "viability, T/C", "setting": "second compound 0.0316 µM, first compound 3.16 µM", "result": 112, "unit": "%"}, {"measurement": "viability, T/C", "setting": "second compound 0.0316 µM, first compound 10 µM", "result": 91.2, "unit": "%"}, {"measurement": "viability, T/C", "setting": "second compound 0.1 µM, first compound 0.0316 µM", "result": 91.2, "unit": "%"}, {"measurement": "viability, T/C", "setting": "second compound 0.1 µM, first compound 0.1 µM", "result": 100, "unit": "%"}, {"measurement": "viability, T/C", "setting": "second compound 0.1 µM, first compound 0.316 µM", "result": 92.3, "unit": "%"}, {"measurement": "viability, T/C", "setting": "second compound 0.1 µM, first compound 1 µM", "result": 99.1, "unit": "%"}, {"measurement": "viability, T/C", "setting": "second compound 0.1 µM, first compound 3.16 µM", "result": 101, "unit": "%"}, {"measurement": "viability, T/C", "setting": "second compound 0.1 µM, first compound 10 µM", "result": 81.8, "unit": "%"}, {"measurement": "viability, T/C", "setting": "second compound 0.316 µM, first compound 0.0316 µM", "result": 103, "unit": "%"}, {"measurement": "viability, T/C", "setting": "second compound 0.316 µM, first compound 0.1 µM", "result": 103, "unit": "%"}, {"measurement": "viability, T/C", "setting": "second compound 0.316 µM, first compound 0.316 µM", "result": 89.2, "unit": "%"}, {"measurement": "viability, T/C", "setting": "second compound 0.316 µM, first compound 1 µM", "result": 95.4, "unit": "%"}, {"measurement": "viability, T/C", "setting": "second compound 0.316 µM, first compound 3.16 µM", "result": 99.2, "unit": "%"}, {"measurement": "viability, T/C", "setting": "second compound 0.316 µM, first compound 10 µM", "result": 93.3, "unit": "%"}, {"measurement": "viability, T/C", "setting": "second compound 1 µM, first compound 0.0316 µM", "result": 93.7, "unit": "%"}, {"measurement": "viability, T/C", "setting": "second compound 1 µM, first compound 0.1 µM", "result": 106, "unit": "%"}, {"measurement": "viability, T/C", "setting": "second compound 1 µM, first compound 0.316 µM", "result": 87.8, "unit": "%"}, {"measurement": "viability, T/C", "setting": "second compound 1 µM, first compound 1 µM", "result": 93.2, "unit": "%"}, {"measurement": "viability, T/C", "setting": "second compound 1 µM, first compound 3.16 µM", "result": 89.9, "unit": "%"}, {"measurement": "viability, T/C", "setting": "second compound 1 µM, first compound 10 µM", "result": 85.2, "unit": "%"}]}
{"molecule": "O=C(c1ccc(F)c(F)c1Nc1ccc(I)cc1F)N1CC(O)([C@@H]2CCCCN2)C1", "note": "+ CCN1C(C(=O)NC23CCC(C(=O)O)(CC2)CC3)C(c2cccc(Cl)c2F)C2(C(=O)Nc3cc(Cl)ccc32)C12CCCCC2", "values": [{"measurement": "IC50", "setting": "second compound 0.00949 µM", "result": "> 1", "unit": "µM"}, {"measurement": "IC50", "setting": "second compound 0.03 µM", "result": "> 1", "unit": "µM"}, {"measurement": "IC50", "setting": "second compound 0.0949 µM", "result": "> 1", "unit": "µM"}, {"measurement": "IC50", "setting": "second compound 0.3 µM", "result": "> 1", "unit": "µM"}, {"measurement": "IC50", "setting": "second compound 0.949 µM", "result": "> 1", "unit": "µM"}, {"measurement": "IC50", "setting": "second compound 3 µM", "result": "> 1", "unit": "µM"}, {"measurement": "viability, T/C", "setting": "second compound 0.00949 µM, first compound 0.00316 µM", "result": 90.7, "unit": "%"}, {"measurement": "viability, T/C", "setting": "second compound 0.00949 µM, first compound 0.01 µM", "result": 93.4, "unit": "%"}, {"measurement": "viability, T/C", "setting": "second compound 0.00949 µM, first compound 0.0316 µM", "result": 87.1, "unit": "%"}, {"measurement": "viability, T/C", "setting": "second compound 0.00949 µM, first compound 0.1 µM", "result": 81.8, "unit": "%"}, {"measurement": "viability, T/C", "setting": "second compound 0.00949 µM, first compound 0.316 µM", "result": 93.1, "unit": "%"}, {"measurement": "viability, T/C", "setting": "second compound 0.00949 µM, first compound 1 µM", "result": 93.7, "unit": "%"}, {"measurement": "viability, T/C", "setting": "second compound 0.03 µM, first compound 0.00316 µM", "result": 90.5, "unit": "%"}, {"measurement": "viability, T/C", "setting": "second compound 0.03 µM, first compound 0.01 µM", "result": 98.3, "unit": "%"}, {"measurement": "viability, T/C", "setting": "second compound 0.03 µM, first compound 0.0316 µM", "result": 98.5, "unit": "%"}, {"measurement": "viability, T/C", "setting": "second compound 0.03 µM, first compound 0.1 µM", "result": 87.3, "unit": "%"}, {"measurement": "viability, T/C", "setting": "second compound 0.03 µM, first compound 0.316 µM", "result": 95, "unit": "%"}, {"measurement": "viability, T/C", "setting": "second compound 0.03 µM, first compound 1 µM", "result": 97.4, "unit": "%"}, {"measurement": "viability, T/C", "setting": "second compound 0.0949 µM, first compound 0.00316 µM", "result": 93.9, "unit": "%"}, {"measurement": "viability, T/C", "setting": "second compound 0.0949 µM, first compound 0.01 µM", "result": 97, "unit": "%"}, {"measurement": "viability, T/C", "setting": "second compound 0.0949 µM, first compound 0.0316 µM", "result": 88.4, "unit": "%"}, {"measurement": "viability, T/C", "setting": "second compound 0.0949 µM, first compound 0.1 µM", "result": 84.2, "unit": "%"}, {"measurement": "viability, T/C", "setting": "second compound 0.0949 µM, first compound 0.316 µM", "result": 92.4, "unit": "%"}, {"measurement": "viability, T/C", "setting": "second compound 0.0949 µM, first compound 1 µM", "result": 104, "unit": "%"}, {"measurement": "viability, T/C", "setting": "second compound 0.3 µM, first compound 0.00316 µM", "result": 97.5, "unit": "%"}, {"measurement": "viability, T/C", "setting": "second compound 0.3 µM, first compound 0.01 µM", "result": 89.4, "unit": "%"}, {"measurement": "viability, T/C", "setting": "second compound 0.3 µM, first compound 0.0316 µM", "result": 89.6, "unit": "%"}, {"measurement": "viability, T/C", "setting": "second compound 0.3 µM, first compound 0.1 µM", "result": 91.7, "unit": "%"}, {"measurement": "viability, T/C", "setting": "second compound 0.3 µM, first compound 0.316 µM", "result": 100, "unit": "%"}, {"measurement": "viability, T/C", "setting": "second compound 0.3 µM, first compound 1 µM", "result": 93.8, "unit": "%"}, {"measurement": "viability, T/C", "setting": "second compound 0.949 µM, first compound 0.00316 µM", "result": 100, "unit": "%"}, {"measurement": "viability, T/C", "setting": "second compound 0.949 µM, first compound 0.01 µM", "result": 104, "unit": "%"}, {"measurement": "viability, T/C", "setting": "second compound 0.949 µM, first compound 0.0316 µM", "result": 91.8, "unit": "%"}, {"measurement": "viability, T/C", "setting": "second compound 0.949 µM, first compound 0.1 µM", "result": 105, "unit": "%"}, {"measurement": "viability, T/C", "setting": "second compound 0.949 µM, first compound 0.316 µM", "result": 104, "unit": "%"}, {"measurement": "viability, T/C", "setting": "second compound 0.949 µM, first compound 1 µM", "result": 99, "unit": "%"}, {"measurement": "viability, T/C", "setting": "second compound 3 µM, first compound 0.00316 µM", "result": 110, "unit": "%"}, {"measurement": "viability, T/C", "setting": "second compound 3 µM, first compound 0.01 µM", "result": 115, "unit": "%"}, {"measurement": "viability, T/C", "setting": "second compound 3 µM, first compound 0.0316 µM", "result": 106, "unit": "%"}, {"measurement": "viability, T/C", "setting": "second compound 3 µM, first compound 0.1 µM", "result": 105, "unit": "%"}, {"measurement": "viability, T/C", "setting": "second compound 3 µM, first compound 0.316 µM", "result": 109, "unit": "%"}, {"measurement": "viability, T/C", "setting": "second compound 3 µM, first compound 1 µM", "result": 112, "unit": "%"}]}
